Measured values as given in article PMC12058896, “Potent antimicrobial activity of hydrogel loaded with the antimicrobial peptide, D-Bac8c^2,5 Leu, against monospecies and polymicrobial biofilms of Staphylococcus aureus and Pseudomonas aeruginosa” (Frontiers in Microbiology, 2025).
In brackets after ≈: the same amount, converted by molar mass. Marks after values point to notes of the source that are not given here. Non-standard residues stand in square brackets, D forms with d. Residues, ends and D or L forms follow the SMILES beside them.

What was measured:
PAO1 = assay: microbe, parasite or virus in culture; format: cell-based, Pseudomonas aeruginosa; settings: PAO1, 18 h
Procedure: (§1) Strains used in the study were isolates of methicillin-resistant Staphylococcus aureus (MRSA); USA300 LAC, BH1CC ([O’Neill et al., 2007]), methicillin-sensitive S. aureus (MSSA); SH1000 ([Horsburgh et al., 2002]) and BH48 ([O’Neill et al., 2007]); and Pseudomonas aeruginosa PAO1 (ATCC […]). Clinical isolates were obtained from a previous collection of isolates of infected wounds. Bacteria were grown aerobically at 37°C with shaking at 200 rpm in Brain Heart Infusion (BHI, Oxoid, Ireland). Selective media, Mannitol Salt Agar (SLS, Ireland) and MacConkey agar (SLS, Ireland), for re-isolation of bacterial strains from mixed species biofilms were used. Bolton Broth (Fannin, Ireland) supplemented with 50% bovine heparin plasma (TebuBio, UK), and 5% laked horse blood (Sigma-Aldrich, Ireland) was used to mimic in vivo conditions for static antibiofilm testing. For dynamic biofilm growth Simulated Wound Fluid (SWF) prepared as described previously with slight modification, 3% v/v fetal bovine serum in maximum recovery diluent (Merck, Ireland) was used ([Barbour et al., 2016]).
Minimum inhibitory concentration (MIC) was determined aerobically using the broth microdilution assay as recommended by the Clinical and Laboratory Standards Institute (CLSI) ([CLSI, 2018]). Briefly, 2-fold serial dilutions of the antimicrobial peptides of interest and conventional antibiotics were prepared in Mueller-Hinton broth (MHB) (Merck, Ireland) in a 96-well round bottom polypropylene plate (ThermoFisher, Ireland). Diluted bacterial suspensions in sterile PBS (Sigma, Ireland) were added to each well resulting in a final cell density of approximately 10^5 colony forming units (CFU)/mL. Microplates were incubated statically for 18 h at 37°C. In each assay, inoculated medium without antimicrobials and uninoculated medium served as growth and sterility controls, respectively. Conventional antibiotics, gentamicin (Merck, Ireland) and mupirocin (SLS, UK), were tested as comparator antimicrobials. The MIC value was defined as the lowest antimicrobial concentration showing no visible growth relative to positive (no antimicrobial agent) and negative controls (BHI alone). Experiments were conducted in triplicate, and independent replicates were performed three times to yield n = 3.

S. aureus strains = format: cell-based, Staphylococcus aureus; settings: 2 MRSA and 2 MSSA strains, summed up in text
Procedure: as §1
Minimum inhibitory concentration (MIC) was determined aerobically using the broth microdilution assay as recommended by the Clinical and Laboratory Standards Institute (CLSI) ([CLSI, 2018]). […]

[1] = test system: PAO1 + SH1000 polymicrobial biofilm; assay: Static polymicrobial biofilm, CFU enumeration; format: cell-based, S. aureus + P. aeruginosa; settings: 6 h, 37°C
Procedure: (§2) Biofilms were formed under static conditions using flat 96-well polystyrene plates as described previously with few modifications ([Nasreddine et al., 2018]). Briefly, overnight cultures in BHI were washed and diluted 1:200 in fresh Bolton Broth media supplemented with 50% bovine heparin plasma, and 5% laked horse blood. From this suspension, 100 μL was used to inoculate the microtiter plate wells prior to static incubation at 37°C for 24 h, 3 days and 5 days. The media in each well was changed daily during prolonged incubation periods (3 and 5 days). Following the initial incubation period and washing, 100 μL of D-Bac8c^2,5 Leu, was added to each test well at 37°C for 6 h at a concentration range of 64–256 μg/mL. After incubation with D-Bac8c^2,5 Leu, biofilms were washed twice with PBS and biofilm assessment was performed. For the polymicrobial biofilms, a bacterial solution ratio 1:1 of S. aureus and P. aeruginosa at 1 × 10^5 CFU/mL each was used to inoculate the wells. In each assay, inoculated medium without antimicrobials and uninoculated medium served as growth and sterility controls, respectively. Experiments were conducted in triplicate, and independent replicates were performed three times to yield n = 3.
(§3) After treatment, formed biofilms were washed twice with sterile PBS and then suspended in TrypLE solution (Gibco, Dublin, Ireland). A serial of 10-fold dilutions of the suspended biofilms were performed in 96-well flat bottom microplates. Then 10 μL of each dilution was plated in triplicate on MH agar using the drop method. For polymicrobial biofilms, dilutions were plated on Mannitol Salt Agar and MacConkey Agar. After overnight incubation at 37°C, CFU were counted and results were expressed as log10CFU/mL.

[2] = test system: PAO1 + USA300 polymicrobial biofilm; assay: Static polymicrobial biofilm, CFU enumeration; format: cell-based, S. aureus + P. aeruginosa; settings: 24 h biofilm PAO1 + USA300, 256 μg/mL, 6 h, 37°C
Procedure: as §2, §3

HUVEC = assay: MTT cell viability; format: cell-based, human; settings: 24 h, 37°C, 5% CO2, average of three independent experiments
human red blood cells = format: cell-based
Procedure: Potential haemolytic activity of the peptide was determined using fresh human erythrocytes from healthy donors based on the method described by [Cantisani et al. (2013)]. Human blood was drawn [ethylenediaminetetraacetic acid (EDTA); 1.6 mg/mL], and red blood cells (RBCs) were separated by centrifugation at 1000 x g for 5 min at 18°C. Upon 3 washes with PBS, the RBCs were further diluted 2-fold (v/v) into PBS. D-Bac8c^2,5 Leu was added to erythrocyte suspension at a final concentration ranging from 3.125 to 200 μg/mL in a final volume of 100 μL. Samples were incubated at 37°C for 24 h. The level of haemolysis was assessed by measuring the absorbance of supernatant at 490 nm. Triton-X-100 was used as a positive control for haemolysis.

[3] = test system: pro-inflammatory cytokines; settings: cited from earlier work
IL-8 = settings: ref Zapotoczna et al. (2017); cited from earlier work
From the text: (§4) Similarly, here we verified that D-Bac8c^2,5 Leu has low toxicity to human monocytes THP-1.

TNFα = settings: ref Zapotoczna et al. (2017); cited from earlier work
From the text: as §4

CC(C)C[C@@H](NC(=O)[C@H](N)CCCNC(=N)N)C(=O)N[C@H](Cc1c[nH]c2ccccc12)C(=O)N[C@@H](C(=O)N[C@H](CC(C)C)C(=O)N[C@H](Cc1c[nH]c2ccccc12)C(=O)N[C@H](CCCNC(=N)N)C(=O)N[C@H](CCCNC(=N)N)C(N)=O)C(C)C [D-Bac8c^2,5 Leu] (H-[dR][dL][dW][dV][dL][dW][dR][dR]-NH2; N-terminus assumed)
MIC (PAO1): 16 mg/L (≈ 13.5 µM)
MIC against S. aureus strains (S. aureus strains): 8 mg/L (≈ 6.76 µM)
Log change vs. untreated control ([1]; 24 h biofilm PAO1 + SH1000, 64 μg/mL, left column of pair under S. aureus + P. aeruginosa): −0.6 Log
Log change vs. untreated control ([1]; 24 h biofilm PAO1 + SH1000, 64 μg/mL, right column of pair under S. aureus + P. aeruginosa): −0.64 Log
Log change vs. untreated control ([1]; 24 h biofilm PAO1 + SH1000, 128 μg/mL, left column of pair): −1.65* Log
Log change vs. untreated control ([1]; 24 h biofilm PAO1 + SH1000, 128 μg/mL, right column of pair): −1.61* Log
Log change vs. untreated control ([1]; 24 h biofilm PAO1 + SH1000, 256 μg/mL): −3.78*** Log
Log change vs. untreated control [2]: −2.44*** Log
IC50 (50% cell viability), MTT (HUVEC): 134 mg/L (≈ 113 µM)
haemolytic activities (human red blood cells): negligible
release of pro-inflammatory cytokines in human blood [3]: did not induce
biofilm-induced increase in IL-8 levels (IL-8): inhibited
effect on TNFα (TNFα): without affecting
